# Data: patent US6071919A, “Zwitterionic compositions and methods as biological response modifiers” (priority 1998, dated 2000)
# Where two headings read alike, the source gives them in different places. Where a SMILES comes first, the peptide text is derived from it.
# Experiments:
# [1] = cited from earlier work
# [2] = cited from earlier work; for αpKa /° C.: change of pKa per ° C.
# [3] = ADA: data of Schwarzenbach et al. (1955); cited from earlier work
# [4] = ADA: data of Schwarzenbach et al. (1955); cited from earlier work; remark: listed apart in the source
# [5] = ADA: data of Schwarzenbach et al. (1955); cited from earlier work; remark: listed apart in the source
# [6] = ADA: data of Schwarzenbach et al. (1955); cited from earlier work; remark: listed apart in the source
# [7] = test system: cancer tumors; assay: Macrophage infiltration of tumors; type: in vivo, dogs; conditions: dogs
# From the text: (§1) The amphoteric zwitterion compounds may be employed as active ingredients with other active ingredients, as well as other components and carriers typically used in pharmaceutical compositions; such as, but not limited to: buffers, stabilizers, dyes, antioxidants, dispersing agents, fillers, surfactants, silicones, bulking agents, pigments, salts, human or animal (natural or synthetic) cells and cellular components, antibiotics, drugs, vitamins, amino acids, proteins, serum and various other compounds and combinations thereof in varying amounts.
# [8] = test system: giant platelets and histiocytes; assay: Giant platelets and histiocytes on peripheral smear; type: in vivo, animals; conditions: blood / peripheral smear
# From the text: as §1
# [9] = as the hydrochloride (footnote b)
Compound,"Saturated Solution at 0° [1, 9] [M]",pKa at 20° [2],αpKa /° C. [2],"Metal-Buffer Binding Constants Log KM, Mn^2+ [3]","Metal-Buffer Binding Constants Log KM, Mg^2+ [4]","Metal-Buffer Binding Constants Log KM, Ca^2+ [5]","Metal-Buffer Binding Constants Log KM, Cu^2+ [6]",Saturated Solution at 0° [1] [M],macrophage infiltration of cancer tumors [7],giant platelets and histiocytes [8]
NCC(N)=O [Glycinamide],4.6,8.2,-0.029,,,,,,,
C[N+](C)(C)CCN [Cholamine chloride],4.2,7.1,-0.027,Negl,Negl,Negl,Negl,,,
O=C(O)CN(CCO)CCO [Bicine],,,-0.018,,1.5,2.8,,,,
O=S(=O)(O)CCNC(CO)(CO)CO [TES],,7.5,,Negl,Negl,Negl,3.2,2.6,,
O=S(=O)(O)CCN1CCOCC1 [MES],,,,,,,Negl,,,
O=C(O)CNC(CO)(CO)CO [Tricine],,,,,1.2,2.4,7.3,0.8,,
NC(=O)CNCCS(=O)(=O)O [ACES],,6.9,-0.020,Negl,,,4.6,0.22,,
NCC(=O)NCC(=O)O [Glycylglycine] (H-Gly-Gly-OH),,8.4,,1.7,,,5.8,,,
O=S(=O)(O)CCN1CCN(CCS(=O)(=O)O)CC1 [PIPES],,,,Negl,Negl,Negl,Negl,,macrophage infiltration of cancer tumors in dogs,production of giant platelets and histiocytes
O=S(=O)(O)CCN(CCO)CCO [BES],,7.15,,Negl,Negl,Negl,3.5,,,
NC(=O)CN(CC(=O)O)CC(=O)O [ADA],,6.6,,4.9,2.5,4.0,9.7,,,
NC(CO)(CO)CO [Tris],,,,Negl,Negl,Negl,,2.4,,
"NC(=O)CNCC(=O)O [Acetamidoglycine, Acetamido-glycine]",,~7.7,,,,,,,,
